Experimental data published in PubChem BioAssay (NCI).
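Grown in 96-well plates, cells were treated for 48 hours with each compound at five concentrations. Insufficient inhibition: endpoint recorded as highest concentration tested. At the TGI there is no net growth.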 Where a SMILES comes first, the peptide text is derived from it. The star is where a group is joined. Boc = CC(C)(C)OC(=O)*

Columns and labels:
Test in all cases: growth of human tumour cells (NCI), 48 h
[1] = tested on: MDA-MB-231 breast
[2] = tested on: IGROV1 ovarian
[3] = tested on: HCC-2998 colon
[4] = tested on: NCI-H226 lung
[5] = tested on: LOX IMVI melanoma
[6] = tested on: NCI-H460 lung
[7] = tested on: HCT-116 colon
[8] = tested on: RPMI-8226 leukemia
[9] = tested on: SNB-19 CNS
[10] = tested on: HT29 colon
[11] = tested on: NCI-H23 lung
[12] = tested on: MCF7 breast
[13] = tested on: HOP-62 NSCLC
[14] = tested on: SF-268 CNS
[15] = tested on: OVCAR-3 ovarian
[16] = tested on: T-47D breast
[17] = tested on: SF-539 CNS
[18] = tested on: MALME-3M melanoma
[19] = tested on: SW-620 colon
[20] = tested on: SF-295 CNS
[21] = tested on: TK-10 renal
[22] = tested on: SK-MEL-28 melanoma
[23] = tested on: K-562 leukemia
[24] = tested on: OVCAR-8 ovarian
[25] = tested on: SN12C renal
[26] = tested on: A549 NSCLC
[27] = tested on: RXF 393 renal
[28] = tested on: 786-0 renal
[29] = tested on: M14 melanoma
[30] = tested on: SK-OV-3 ovarian
[31] = tested on: NCI-H522 lung
[32] = tested on: MOLT-4 leukemia
[33] = tested on: SNB-75 CNS
[34] = tested on: UACC-257 melanoma
[35] = tested on: MDA-MB-435
[36] = tested on: KM12 colon
[37] = tested on: UACC-62 melanoma
[38] = tested on: HCT-15 colon
[39] = tested on: A498 renal
[40] = tested on: DU-145 prostate
[41] = tested on: MDA-N
[42] = tested on: PC-3 prostate
[43] = tested on: NCI/ADR-RES ovarian
[44] = tested on: COLO 205 colon
[45] = tested on: SR leukemia
[46] = tested on: CAKI-1 renal
[47] = tested on: ACHN renal
[48] = tested on: HS 578T breast
[49] = tested on: U251 CNS
[50] = tested on: SK-MEL-5 melanoma
[51] = tested on: OVCAR-4 ovarian
[52] = tested on: EKVX NSCLC
[53] = tested on: OVCAR-5 ovarian
[54] = tested on: CCRF-CEM leukemia
[55] = tested on: UO-31 renal
[56] = tested on: BT-549 breast
[57] = tested on: HL-60(TB) leukemia
[58] = tested on: SK-MEL-2 melanoma
[59] = tested on: HOP-92 NSCLC

Measured: TGI

CCOC(=O)/C(C#N)=C/c1ccc(CO)o1
not listed: [54] | [55] | [56] | [57] | [58] | [59]
> 100 µM: all other assays above

COC(=O)C(Cc1c[nH]c2ccccc12)NC(=O)C(Cc1c[nH]c2ccccc12)NC(=O)C(Cc1c[nH]c2ccccc12)NC(=O)C(Cc1c[nH]c2ccccc12)NC(=O)OC(C)(C)C (stereo unspecified) (Boc-WWWW-OMe; configuration not given here)
49 µM: [10]
38.4 µM: [37]
0.0884 µM: [12]
92.3 µM: [11]
28 µM: [5]
26 µM: [8]
34.6 µM: [49]
67 µM: [13]
62.8 µM: [19]
34.3 µM: [54]
38.5 µM: [3]
44.2 µM: [7]
56.6 µM: [45]
70.2 µM: [56]
43.4 µM: [57]
20.7 µM: [32]
55.3 µM: [41]
40.2 µM: [15]
96.5 µM: [42]
not listed: [17] | [20] | [27] | [30] | [36] | [39] | [43] | [44] | [48] | [52] | [58] | [59]
> 100 µM: all other assays above

O=C(CN1CCCCC1)c1ccc2c(c1)Sc1ccccc1O2
34.5 µM: [41]
36.1 µM: [52]
29 µM: [4]
37.8 µM: [22]
27.5 µM: [51]
32.5 µM: [13]
30 µM: [53]
32.8 µM: [58]
21.6 µM: [48]
33.4 µM: [18]
61.1 µM: [44]
42.7 µM: [25]
> 100 µM: [8] | [23] | [32]
33.2 µM: [24] | [28]
37.2 µM: [1] | [46]
34.4 µM: [54]
23.5 µM: [2]
35 µM: [7] | [43]
58.1 µM: [57]
29.5 µM: [6]
28.5 µM: [29]
29.1 µM: [26]
30.6 µM: [17]
23.7 µM: [10]
39.6 µM: [34] | [49]
30.1 µM: [36]
47.9 µM: [16]
49.3 µM: [40]
39.3 µM: [39]
25.7 µM: [37]
28.9 µM: [9]
24.2 µM: [33]
27.7 µM: [47]
29.6 µM: [15] | [30]
24.4 µM: [42]
30.9 µM: [12] | [20]
27.9 µM: [11]
44.6 µM: [21]
75.1 µM: [45]
24.6 µM: [38]
39.1 µM: [19]
21 µM: [27]
40.3 µM: [5]
33.9 µM: [14] | [35]
22.9 µM: [55]
37 µM: [3]
28 µM: [59]

N/N=C1/C(=N/O)CCc2nonc21
not listed: [31] | [39] | [56]
> 100 µM: all other assays above

Cc1ccc(S(=O)(=O)NC(=O)NCCC(=O)O)cc1
not listed: [3] | [4] | [15] | [35] | [39] | [43] | [46] | [52]
> 100 µM: all other assays above

CO/C(=N\N=C\c1ccc(Cl)cc1Cl)c1ccncc1
not listed: [2] | [3] | [17] | [22] | [30] | [33] | [37] | [39] | [48] | [50]
> 10 µM: all other assays above

C[C@H](CC[C@@H](O)C(C)(C)O)[C@H]1CC[C@@]2(C)[C@@H]3CC=C4[C@@H](CC[C@H](O)C4(C)C)[C@]3(C)C(=O)C[C@]12C
45.4 µM: [42]
49.2 µM: [36]
29.8 µM: [8]
31.8 µM: [44]
not listed: [3] | [14] | [16] | [27] | [33] | [37] | [46] | [59]
> 50 µM: all other assays above

NC(c1ccccc1)(C(F)(F)F)P1(=O)OC(=O)c2ccccc2O1 (stereo unspecified)
85 µM: [59]
74.4 µM: [30]
not listed: [5] | [18] | [31] | [48] | [54] | [57]
> 100 µM: all other assays above
